From ChEMBL document CHEMBL3217458, “Discovery of a novel benzopyranyl compound as a potent in vitro and in vivo osteogenic agent” (Medchemcomm, 2011) come the findings set out here.

Active and inactive are the calls of the source. The rule behind the calls is not given here.

Data set [1] concerns C3H 10T1/2. Kind of data set: Induction of osteogenesis in mouse C3H10T1/2 cells assessed as increase in alkaline phosphatase activity at 2 uM after 72 hrs by ALP assay. In kind it is functional.
Data set [2] deals with C3H 10T1/2. Kind of data set: Induction of osteogenesis in mouse C3H10T1/2 cells assessed as increase in alkaline phosphatase activity after 72 hrs by ALP assay. In kind it is functional, cell-based.
Another data set relates to HepG2. The data set can be described thus: Cytotoxicity against human HepG2 cells at 0.1 to 25 uM after 24 hrs by WST-1 assay. In kind it is cell-based. The note with it: hepg2, 24 h. A general note: Tetrazolium assays rely on reduction of a dye to a coloured formazan, in cell work by metabolically active cells.
Data set [3] has as its system C3H 10T1/2. Kind of data set: Activation of proto-oncogene protein Wnt/beta-catenin signaling (unknown origin) transfected in mouse C3H10T1/2 cells assessed as increase in transcriptional activity at 2 uM after 48 hrs by TOPflash luciferase reporter gene assay. Particulars: Homo sapiens. The class given is cell-based.
The next data set has as its system HeLa. The data set can be described thus: Cytotoxicity against human HeLa cells at 0.1 to 25 uM after 24 hrs by WST-1 assay. In kind it is cell-based.
The test system of another data set is L6. The data set can be described thus: Cytotoxicity against rat L6 cells at 0.1 to 25 uM after 24 hrs by WST-1 assay. In kind it is cell-based. Particulars: l6, 24 h.
Data set [4] deals with C3H 10T1/2. Kind of data set: Induction of osteogenesis in mouse C3H10T1/2 cells assessed as calcium deposition at 4 uM by Alizarin Red S staining-based assay. The class given is functional, cell-based.
In data set [5] the test system is Mus musculus. The data set can be described thus: Induction of osteogenesis in ovariectomized C57BL/6 mouse model assessed as increase in […] at 5 to 10 mg/kg/day, po administered 5 days per week for 4 weeks by dual-energy X-ray absorptiometry relative to vehicle-treated control. In kind it is functional.
In the next data set the test system is DU-145. Kind of data set: Cytotoxicity against human DU145 cells at 0.1 to 25 uM after 24 hrs by WST-1 assay. In kind it is cell-based. The note with it: du-145, 24 h.
Data set [6] concerns Mus musculus. Kind of data set: Induction of osteogenesis in ovariectomized C57BL/6 mouse model assessed as increase in trabecular number at 10 mg/kg/day, po administered 5 days per week for 4 weeks by micro-CT analysis relative to vehicle-treated control. The class given is functional, organism-based. Particulars: Trabecula.
The next data set has as its system C2C12. The data set can be described thus: Cytotoxicity against mouse C2C12 cells at 0.1 to 25 uM after 24 hrs by WST-1 assay. The note with it: c2c12, 24 h. In kind it is cell-based.
A further data set deals with PC-3. The data set can be described thus: Cytotoxicity against human PC3 cells at 0.1 to 25 uM after 24 hrs by WST-1 assay. The class given is cell-based. The note with it: pc-3, 24 h.
Data set [7] relates to Mus musculus. The data set can be described thus: Induction of osteogenesis in ovariectomized C57BL/6 mouse model assessed as increase in bone volume at 10 mg/kg/day, po administered 5 days per week for 4 weeks by micro-CT analysis relative to vehicle-treated control. The class given is functional, organism-based.
Data set [8] has as its system Mus musculus. Kind of data set: Induction of osteogenesis in ovariectomized C57BL/6 mouse model assessed as reduction in trabecular space at 10 mg/kg/day, po administered 5 days per week for 4 weeks by micro-CT analysis relative to vehicle-treated control. The class given is functional, organism-based. The note with it: Trabecula.
Data set [9] is described as follows: Cytotoxicity against mouse 3T3L1 cells at 0.1 to 25 uM after 24 hrs by WST-1 assay. In kind it is cell-based. Particulars: 3t3-l1, 24 h.
Data set [10] relates to C3H 10T1/2. The data set can be described thus: Induction of osteogenesis in mouse C3H10T1/2 cells using BCIP as substrate assessed as increase in alkaline phosphatase activity at 0.25 to 4 uM after 72 hrs by nitroblue tetrazolium chloride staining-based assay. The class given is functional, cell-based.
Data set [11] in a line: Cytotoxicity against human CaSki cells at 0.1 to 25 uM after 24 hrs by WST-1 assay. Particulars: ca-ski. The class given is cell-based.

With `CC1(C)C=C(c2ccccc2[N+](=O)[O-])c2ccc(O)cc2O1`, in the data set with C3H 10T1/2 [1], the “fold change (FC)” value was 1.2.
In the case of `CCOC(=O)CCC1(C)C=C(c2cccc([N+](=O)[O-])c2)c2ccc(O)cc2O1` (stereo unspecified), the “fold change (FC)” value in the data set on C3H 10T1/2 [1] amounted to 1.4.
As for `CC1(C)CC(c2cccs2)c2ccc(O)cc2O1` (stereo unspecified), the result in the data set on C3H 10T1/2 [2] was inactive.
Turning to `CN(C)c1cccc(C2=CC(C)(C)Oc3cc(O)ccc32)c1`, the “fold change (FC)” value in the data set on C3H 10T1/2 [1] was found to be 1.6.
Take `CC1(C)CC(c2ccccc2)c2ccc(O)cc2O1` (stereo unspecified): the result in the data set on C3H 10T1/2 [2] was inactive.
On to `CC1(C)C=C(c2cccc(O)c2)c2ccc(O)cc2O1`, for which, in the data set with C3H 10T1/2 [1], the “fold change (FC)” value worked out at 1.4.
On to `CC1(C)CC(c2cccnc2)c2ccc(O)cc2O1` (stereo unspecified), for which the result with C3H 10T1/2 [2] was inactive.
In the case of `COc1ccc2c(c1O)OC(C)(C)C=C2c1cccc([N+](=O)[O-])c1`, in the data set on C3H 10T1/2 [1], the “fold change (FC)” value is listed as 1.5.
Turning to `CC1(C)CC(c2ccc([N+](=O)[O-])cc2)c2cc(Cl)cc(-c3cccc(O)c3)c2O1` (stereo unspecified), the outcome in the data set on C3H 10T1/2 [2] was inactive.
Same read-out and setting: the result for `CC1(C)CC(c2ccc([N+](=O)[O-])cc2)c2cc(-c3cccc(O)c3)ccc2O1` (stereo unspecified) reads “inactive”.
On to `CC1(C)C=C(c2cc(Cl)cc(Cl)c2)c2ccc(O)cc2O1`, for which, in the data set on C3H 10T1/2 [1], the “fold change (FC)” value was found to be 1.5.
Take `CN(C)c1ccc(C2=CC(C)(C)Oc3cc(O)ccc32)cc1`: in the data set with C3H 10T1/2 [1], the “fold change (FC)” value turned out to be 0.7.
For `CC(=O)c1cccc(C2=CC(C)(C)Oc3cc(O)ccc32)c1`, the “fold change (FC)” value in the data set with C3H 10T1/2 [1] worked out at 1.9.
Regarding `CC1(C)C=C(c2cccc([N+](=O)[O-])c2)c2ccc(O)cc2O1`, the “fold change (FC)” value with C3H 10T1/2 [1] was 6.8. The Activity result in the data set on HepG2 was “Non-toxic”; in the data set on HeLa, “Non-toxic”; in the data set on L6, “Non-toxic”; in the data set with Mus musculus [5] it was 37%; in the data set with DU-145, “Non-toxic”; in the data set with C2C12, “Non-toxic”. Further, the Activity entry was “Non-toxic” with PC-3; “Dose-dependent effect” in the data set on C3H 10T1/2 [2]; “Non-toxic” in data set [9]; “Dose-dependent effect” in the data set with C3H 10T1/2 [10]; “Non-toxic” in data set [11]. For the same compound, the result in the data set on C3H 10T1/2 [3], in the data set with C3H 10T1/2 [4], with Mus musculus [6], with Mus musculus [7] and in the data set on Mus musculus [8] was Active.
For the compound `CC1(C)C=C(c2ccc(N)cc2)c2ccc(O)cc2O1`, the “fold change (FC)” value with C3H 10T1/2 [1] is 3.9.
In the case of `Cc1n[nH]c(C)c1C1CC(C)(C)Oc2cc(O)ccc21` (stereo unspecified), the outcome in the data set on C3H 10T1/2 [2] was inactive.
Still for that read-out and setting: the entry for `CC1(C)CC(c2ccoc2)c2ccc(O)cc2O1` (stereo unspecified) is “inactive”.
As to `CC1(C)C=C(c2cccc(N)c2)c2ccc(O)cc2O1`, in the data set on C3H 10T1/2 [1], the “fold change (FC)” value worked out at 2.5.
As to `CC1(C)C=C(c2ccc([N+](=O)[O-])cc2)c2ccc(O)cc2O1`, the “fold change (FC)” value with C3H 10T1/2 [1] was determined as 3.1.
Still for that read-out and setting: the figure for `O=[N+]([O-])c1cccc(C2=CC3(CCCC3)Oc3cc(O)ccc32)c1` is 0.6.
